Results: patent US20100184802A1, “Bicycloheteroaryl Compounds as P2X7 Modulators and Uses Thereof” (priority 2006, published 2010)

Key:
[1] = target: T1, P2X7 receptor (IL-1β release from THP-1 cells) (Homo sapiens, UniProt Q99572); assay: IL-1β release assay in differentiated THP-1 cells stimulated with BzATP (Example 9); type: cell-based; details: for inhibition at 0.3 µM: 0.3 μM concentration; for inhibition at 0.3 µM / inhibition at 0.1 µM: BzATP 250 uM, read-out: IL-1β % Inhib. @ 0.3 or 0.1 μM; for IC50: released IL-1β as in Example 9, four parameter logistic fit; for inhibition at 0.1 µM: 0.1 μM concentration
T1 construct: host or cells: THP-1 cells differentiated with LPS and IFN-γ
T1 sequence (Q99572 1-595): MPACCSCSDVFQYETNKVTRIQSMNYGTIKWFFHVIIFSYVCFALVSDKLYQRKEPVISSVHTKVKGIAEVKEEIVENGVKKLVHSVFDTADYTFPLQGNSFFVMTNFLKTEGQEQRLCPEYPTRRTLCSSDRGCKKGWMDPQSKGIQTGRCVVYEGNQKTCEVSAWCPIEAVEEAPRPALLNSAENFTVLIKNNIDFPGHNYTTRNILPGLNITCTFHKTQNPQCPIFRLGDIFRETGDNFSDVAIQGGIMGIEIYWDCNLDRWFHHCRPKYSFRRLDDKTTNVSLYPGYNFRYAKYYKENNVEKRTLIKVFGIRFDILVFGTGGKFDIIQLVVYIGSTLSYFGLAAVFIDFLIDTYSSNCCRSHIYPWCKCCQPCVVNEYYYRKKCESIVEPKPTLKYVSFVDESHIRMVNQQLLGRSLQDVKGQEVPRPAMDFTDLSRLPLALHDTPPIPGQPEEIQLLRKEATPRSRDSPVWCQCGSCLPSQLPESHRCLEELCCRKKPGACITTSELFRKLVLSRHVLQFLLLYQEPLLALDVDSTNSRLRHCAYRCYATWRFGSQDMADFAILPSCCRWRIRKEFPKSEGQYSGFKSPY
Method: The cells are then pretreated for 30 minutes with the compound of interest at the appropriate concentration in RPMI media containing 100 IU/mL penicillin, 100 ug/mL streptomycin. […] 30 uL of cell supernatant is then collected and IL-1β levels determined via ELISA (R&D systems Cat. #HSLB50) according to manufacturer's recommendations using the Tecan Safire plate reader. Background adjusted IL-1β levels of drug treated and non-treated cells are used to calculate the percent inhibition.
The compounds set forth in Table 1 were tested for activity in a cellular model as described herein. […] Measurements were made and IC50 values, presented in Table 2, below, were determined by fitting the data to a four parameter logistic equation using GraphPad Prism software (GraphPad Software, Inc). The equation may be expressed by the following formula:
Y=Bottom+(Top−Bottom)/(1+10̂((Log EC50−X)*HillSlope))
Where X is the logarithm of concentration, Y is the response and Y starts at Bottom and goes to Top with a sigmoid shape.

[2] = Half-life in human liver microsomes (HLM); type: in vitro ADME; details: human liver microsomes (HLM, HL101); human liver microsomes 0.78 mg/mL, 1 μM compound, NADPH, pH 7.4, 37° C.
Method: Test compounds (1 μM) are incubated with 3.3 mM MgCl2 and 0.78 mg/mL HLM (HL101) in 100 mM potassium phosphate buffer (pH 7.4) at 37° C. on the 96-deep well plate. The reaction mixture is split into two groups, a non-P450 and a P450 group. NADPH is only added to the reaction mixture of the P450 group. An aliquot of samples of P450 group is collected at 0, 10, 30, and 60 min time point, where 0 min time point indicated the time when NADPH is added into the reaction mixture of P450 group. […] Collected aliquots are extracted with acetonitrile solution containing an internal standard. […] The compound concentration in supernatant is measured by LC/MS/MS system.
The half-life value is obtained by plotting the natural logarithm of the peak area ratio of compounds/internal standard versus time. The slope of the line of best fit through the points yields the rate of metabolism (k). This is converted to a half-life value using following equations:

| inhibition at 0.3 µM [1] [%] | IC50 [1] [nM] | half-life at 1 μM [2] [min] | inhibition at 0.1 µM [1] [%] | Compound |
| --- | --- | --- | --- | --- |
| > 76 | 0.33 | 26.4 |  | CC(CO)n1ccc2c(NC(=O)CC34CC5CC(CC(C5)C3)C4)cccc2c1=O (stereo not shown) [Compound 517, 2-Adamantan-1-yl-N-[2-(2-hydroxy-1-methyl-ethyl)-1-oxo-1,2-dihydro-isoquinolin-5-yl]-acetamide] |
| > 76 | 1.81 | 28.8 |  | C[C@H](CO)n1ccc2c(NC(=O)CC34CC5CC(CC(C5)C3)C4)cccc2c1=O [Compound 522] |
| > 76 | 1.34 | 27 |  | O=C(CC12CC3CC(CC(C3)C1)C2)Nc1cccc2c(=O)n(CCO)ccc12 [Compound 511] |
| > 76 | 0.11 | 42.6 |  | CC12CC3CC(C)(C1)CC(CC(=O)Nc1cccc4c(=O)n(C(CO)CO)ccc14)(C3)C2 [Compound 519] |
| > 76 | 1.3 | 91.2 |  | O=C(CC12CC3CC(CC(C3)C1)C2)Nc1cccc2c(=O)n(C(CO)Cc3c[nH]cn3)ccc12 (stereo not shown) [Compound 515] |
| > 76 | 7.62 | 44.4 |  | O=C(CC12CC3CC(CC(C3)C1)C2)Nc1cccc2c1CCN(CC1CCNCC1)C2=O [Compound 512] |
|  |  |  | 26 to 50 | CC(C)(O)Cn1ccc2c(NC(=O)CC3C[C@@H]4CC[C@H]3C4)cccc2c1=O (stereo partly shown) [Compound 569] |
| > 76 | 6.16 |  |  | C[C@H](C(=O)Nc1cccc2c(=O)n([C@H](C)C(N)=O)ccc12)C1CCCCCC1 [Compound 609] |
| > 76 | 3.42 |  |  | CC(C)[C@H](CO)n1ccc2c(NC(=O)CC3CCCCCC3)cccc2c1=O [Compound 591, 2-Cycloheptyl-N-[2-((R)-1-hydroxymethyl-2-methyl-propyl)-1-oxo-1,2-dihydro-isoquinolin-5-yl]-acetamide] |
| > 76 | 1.21 |  |  | CNC(=O)[C@@H](C(C)C)n1ccc2c(NC(=O)CC34CC5CC(CC(C5)C3)C4)cccc2c1=O [Compound 592, (R)-2-[5-(2-Adamantan-1-yl-acetylamino)-1-oxo-1H-isoquinolin-2-yl]-3,N-dimethyl-butyramide] |
| > 76 | 1.86 |  |  | CC(C)C(CO)n1ccc2c(NC(=O)CC3CCCCCC3)cccc2c1=O (stereo not shown) [Compound 538] |
| > 76 | 32.7 |  |  | NC(=O)C(CO)n1ccc2c(NC(=O)CC3CCCCCC3)cccc2c1=O (stereo not shown) [Compound 551, 2-[5-(2-Cycloheptyl-acetylamino)-1-oxo-1H-isoquinolin-2-yl]-3-hydroxy-propionamide] |
| > 76 | 0.698 |  |  | C[C@H](C(=O)NC1CC1)n1ccc2c(NC(=O)CC34CC5CC(CC(C5)C3)C4)cccc2c1=O [Compound 598, (R)-2-[5-(2-Adamantan-1-yl-acetyl-amino)-1-oxo-1H-isoquinolin-2-yl]-N-cyclopropyl-propionamide] |
|  |  |  | 0 to 25 | C[C@H]1CC[C@H](C(=O)Nc2cccc3c(=O)n(CC4(O)CCCCC4)ccc23)CC1 [Compound 539] |
| > 76 | 1.56 |  |  | O=C(CC12CC3CC(CC(C3)C1)C2)Nc1cccc2c(=O)n(CC3CCCN3)ccc12 (stereo not shown) [Compound 504] |
